# Read-outs that look alike come from different tables or passages of the source.
# Legend:
# BFU-E lineage = assay: Bone marrow toxicity, BFU-E; format: cell-based, human; conditions: human, Cytotoxicity IC50, bone marrow BFU-E, three separate donors
# [1] = HepG2 cytotoxicity, 3 day, glucose/galactose media; format: cell-based; conditions: human
# HepG2 cells = conditions: HepG2, 14 day; for mitochondrial toxicity: at 10 μM
# CFU-GM lineage = assay: Bone marrow toxicity, CFU-GM; format: cell-based, human; conditions: human, Cytotoxicity IC50, bone marrow CFU-GM, three separate donors
# [2] = system: burst forming unit-erythroid (BFU-E) lineage; assay: Bone marrow toxicity, BFU-E; format: cell-based, human; conditions: positive control, at the concentration tested
# [3] = system: colony-forming unit-granulocyte, macrophage (CFU-GM) lineage; assay: Bone marrow toxicity, CFU-GM; format: cell-based, human; conditions: positive control, at the concentration tested
# in vitro [4] = conditions: African green monkey
# HCV GT2a = assay: GT2a infectious assay in Huh-7 cells; format: cell-based; conditions: Hepatitis C virus, Huh-7, read-out: EC90 GT2a
# [5] = Stability in simulated gastric fluid; format: physicochemical; conditions: 37 °C
# [6] = system: Salmonella typhimurium (TA98, TA100, TA1535, and TA1537) and Escherichia coli WP2 uvrA (pKM101); assay: Mini Ames reverse mutation study; conditions: with and without S9 mix
# HCV GT1b-WT replicon = assay: GT1b stably transfected replicon in Huh-7 cells; format: cell-based; conditions: Hepatitis C virus; for EC50: Huh-7, read-out: EC50 GT1b-WT; for EC90: Huh-7, read-out: EC90 GT1b-WT
# [7] = molecular target: T1, human ether-à-go-go-related gene (hERG) potassium channels (Homo sapiens, UniProt Q12809); assay: hERG whole-cell patch clamp in CHO cells; format: cell-based
# [8] = Stability in human intestinal microsomes
# [9] = HepG2 cytotoxicity, 14 day, glucose/galactose media; format: cell-based; conditions: human
# [10] = Cardiac toxicity in stem cell-induced ventricular cardiomyocytes; conditions: human
# [11] = for Clint(liver): scaled from Clint(mic)
# in vitro [12] = conditions: human, microsomes
# [13] = Stability in simulated intestinal fluid; conditions: 37 °C
# [14] = system: HCV GT1b/3a chimeric replicon; assay: Chimeric replicon GT1b/3a in Huh-7 cells; format: cell-based; conditions: Hepatitis C virus, Huh-7, read-out: EC90 GT1b/3a
# [15] = system: HCV GT1b/4a chimeric replicon; assay: Chimeric replicon GT1b/4a in Huh-7 cells; format: cell-based; conditions: Hepatitis C virus, Huh-7, read-out: EC90 GT1b/4a
# [16] = system: HCV GT1b/5a chimeric replicon; assay: Chimeric replicon GT1b/5a in Huh-7 cells; format: cell-based; conditions: Hepatitis C virus, Huh-7, read-out: EC90 GT1b/5a
# [17] = In vitro nephrotoxicity in HK-2 cells, 3 day assay; conditions: human
# [18] = system: Salmonella typhimurium (TA98, TA100, TA1535, and TA1537) and Escherichia coli WP2 uvrA (pKM101); conditions: cited from earlier work
# [19] = molecular target: T1, human ether-à-go-go-related gene (hERG) potassium channels; conditions: cited from earlier work
# DNA polymerase γ = molecular target: T2, DNA polymerase γ (Homo sapiens, UniProt P54098); assay: Human DNA polymerase γ inhibition; format: biochemical
# T2 sequence (P54098 1-1239): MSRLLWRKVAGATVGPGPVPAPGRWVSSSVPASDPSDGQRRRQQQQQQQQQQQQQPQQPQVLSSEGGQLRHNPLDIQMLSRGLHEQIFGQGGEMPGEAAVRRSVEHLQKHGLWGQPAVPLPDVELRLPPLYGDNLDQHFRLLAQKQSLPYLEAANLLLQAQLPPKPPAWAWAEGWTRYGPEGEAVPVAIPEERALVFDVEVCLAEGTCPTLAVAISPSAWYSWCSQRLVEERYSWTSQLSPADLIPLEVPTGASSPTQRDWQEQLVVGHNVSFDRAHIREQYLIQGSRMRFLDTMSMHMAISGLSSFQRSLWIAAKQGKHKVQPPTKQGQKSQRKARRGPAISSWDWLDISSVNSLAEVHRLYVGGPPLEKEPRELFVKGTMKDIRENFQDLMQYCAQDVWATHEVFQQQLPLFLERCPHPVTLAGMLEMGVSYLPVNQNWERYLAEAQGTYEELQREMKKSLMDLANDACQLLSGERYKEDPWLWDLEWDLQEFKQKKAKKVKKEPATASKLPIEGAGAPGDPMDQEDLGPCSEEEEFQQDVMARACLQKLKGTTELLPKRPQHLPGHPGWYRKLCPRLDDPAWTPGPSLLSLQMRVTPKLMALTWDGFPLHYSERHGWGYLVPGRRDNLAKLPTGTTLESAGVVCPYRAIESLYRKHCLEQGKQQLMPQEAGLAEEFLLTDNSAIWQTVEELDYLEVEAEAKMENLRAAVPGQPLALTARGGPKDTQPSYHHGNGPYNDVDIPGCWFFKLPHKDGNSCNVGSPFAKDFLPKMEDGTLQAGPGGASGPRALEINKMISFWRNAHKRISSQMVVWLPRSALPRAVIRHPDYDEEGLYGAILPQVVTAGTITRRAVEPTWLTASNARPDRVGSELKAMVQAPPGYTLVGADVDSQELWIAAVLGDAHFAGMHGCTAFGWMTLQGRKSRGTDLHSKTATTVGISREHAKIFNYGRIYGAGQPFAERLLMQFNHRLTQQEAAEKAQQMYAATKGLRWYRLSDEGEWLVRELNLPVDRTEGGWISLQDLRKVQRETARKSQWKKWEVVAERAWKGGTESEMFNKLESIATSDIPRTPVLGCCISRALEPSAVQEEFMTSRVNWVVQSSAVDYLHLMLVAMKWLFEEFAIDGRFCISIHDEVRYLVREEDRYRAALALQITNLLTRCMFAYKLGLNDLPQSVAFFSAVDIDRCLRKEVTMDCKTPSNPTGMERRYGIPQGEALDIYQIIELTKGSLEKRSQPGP
# DNA polymerase β = DNA polymerase β (Homo sapiens, UniProt P06746); assay: Human DNA polymerase β inhibition; format: biochemical
# T1 sequence (Q12809 whole entry): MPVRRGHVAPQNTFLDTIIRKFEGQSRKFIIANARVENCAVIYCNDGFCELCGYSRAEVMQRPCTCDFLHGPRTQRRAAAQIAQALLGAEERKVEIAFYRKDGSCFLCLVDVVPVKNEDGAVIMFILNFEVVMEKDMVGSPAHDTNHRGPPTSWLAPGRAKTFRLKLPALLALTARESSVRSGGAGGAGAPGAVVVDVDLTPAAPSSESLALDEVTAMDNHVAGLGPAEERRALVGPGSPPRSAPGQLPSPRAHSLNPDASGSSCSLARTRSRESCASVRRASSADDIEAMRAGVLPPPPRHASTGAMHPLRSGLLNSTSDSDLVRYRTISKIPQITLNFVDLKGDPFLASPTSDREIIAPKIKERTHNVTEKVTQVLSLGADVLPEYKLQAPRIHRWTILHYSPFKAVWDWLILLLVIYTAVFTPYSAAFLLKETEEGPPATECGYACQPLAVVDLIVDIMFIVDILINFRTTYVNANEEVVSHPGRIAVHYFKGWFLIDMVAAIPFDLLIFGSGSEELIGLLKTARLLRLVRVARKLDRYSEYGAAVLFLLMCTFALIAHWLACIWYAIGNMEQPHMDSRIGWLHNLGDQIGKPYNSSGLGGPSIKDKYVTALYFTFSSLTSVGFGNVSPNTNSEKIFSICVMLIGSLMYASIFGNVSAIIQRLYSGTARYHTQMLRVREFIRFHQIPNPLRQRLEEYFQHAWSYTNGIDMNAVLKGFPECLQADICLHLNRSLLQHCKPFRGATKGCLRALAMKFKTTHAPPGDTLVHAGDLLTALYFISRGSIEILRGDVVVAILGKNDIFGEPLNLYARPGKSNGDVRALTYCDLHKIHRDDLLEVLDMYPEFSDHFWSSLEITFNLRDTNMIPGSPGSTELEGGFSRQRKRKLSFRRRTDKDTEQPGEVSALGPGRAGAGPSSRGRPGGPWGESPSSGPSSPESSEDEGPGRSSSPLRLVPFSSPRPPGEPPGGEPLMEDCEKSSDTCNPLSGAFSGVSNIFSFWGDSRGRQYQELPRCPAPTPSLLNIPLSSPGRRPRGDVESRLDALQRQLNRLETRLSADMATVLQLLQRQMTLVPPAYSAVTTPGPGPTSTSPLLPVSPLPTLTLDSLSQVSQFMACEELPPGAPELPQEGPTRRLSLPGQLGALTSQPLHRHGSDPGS
smiles,measurement,setting,value
CC(C)OC(=O)[C@H](C)NP(=O)(OC[C@H]1O[C@@H](n2ccc(=O)[nH]c2=O)[C@](F)(Br)[C@H]1O)Oc1ccccc1 (mixture of isomers) [Compound 14],IC50,BFU-E lineage,> 100000 nM
same,IC50 at 3 days,[1],> 100000 nM
same,MtDNA content % of control (range),HepG2 cells; 50 μM,100 (99–104) % of control
same,measurable mitochondrial toxicity (none up to),HepG2 cells,> 50 µM
same,IC50,CFU-GM lineage,> 100000 nM
"Cc1cn([C@H]2C[C@H](N=[N+]=[N-])[C@@H](CO)O2)c(=O)[nH]c1=O [AZT, reference compound]",toxicity in erythroid progenitors,[2],high toxicity
same,toxicity in myelomonocytic progenitors,[3],high toxicity
"O=c1ccn([C@@H]2O[C@H](CO)[C@@H](O)[C@]2(F)Br)c(=O)[nH]1 [Compound 12, 1-((2R, 3S, 4R, 5R)-3-Bromo-3-fluoro-4-hydroxy-5-(hydroxymethyl)tetrahydrofuran-2-yl)pyrimidine-2,4(1H,3H)-dione]",MtDNA content % of control (range),HepG2 cells; 50 μM,72 (63–83) % of control
same,lactic acid production (% of control),HepG2 cells; 50 μM,69 ± 14 % of control
same,measurable mitochondrial toxicity (none up to),HepG2 cells,> 50 µM
same,CC50,in vitro [4],> 100000 nM
same,IC50,CFU-GM lineage,> 100000 nM
"CC(C)OC(=O)[C@H](C)N[P@@](=O)(OC[C@H]1O[C@@H](n2ccc(=O)[nH]c2=O)[C@@](F)(Br)[C@@H]1O)Oc1ccccc1 [Compound 27, Isopropyl ((R)-(((2R,3R,4S,5R)-4-Bromo-5-(2,4-dioxo-3,4-dihydro-pyrimidin-1(2H)-yl)-4-fluoro-3-hydroxytetrahydrofuran-2-yl)-methoxy)(phenoxy)phosphoryl)-L-alaninate]",IC50,BFU-E lineage,> 100000 nM
same,EC90,HCV GT2a,830 ± 10 nM
same,IC50 at 3 days,[1],> 100000 nM
same,"simulated gastric fluid (24 h), loss",[5],~2% loss
same,mutagenicity (mini Ames),[6],negative for mutagenicity
same,MtDNA content % of control (range),HepG2 cells; 50 μM,65 (65–65) % of control
same,lactic acid production (% of control),HepG2 cells; 50 μM,100 ± 6.2 % of control
same,EC50,HCV GT1b-WT replicon,92 nM
same,IC50,[7],> 30000 nM
same,half-life,[8],132 min
same,CC50,in vitro [4],> 100000 nM
same,IC50,CFU-GM lineage,> 100000 nM
same,IC50 at 14 days,[9],> 100000 nM
same,IC50,[10],> 100000 nM
same,Clint(liver),[11],67.8 mL/min/kg
same,half-life,in vitro [12],18.4 min
same,microsomal CLint,in vitro [12],75.3 µL/min/mg
same,stability in simulated intestinal fluid (24 h),[13],stable
same,EC90,[14],1600 ± 20 nM
same,EC90,[15],870 ± 230 nM
same,EC90,[16],800 ± 1500 nM
"CC(C)OC(=O)[C@H](C)N[P@](=O)(OC[C@H]1O[C@@H](n2ccc(=O)[nH]c2=O)[C@@](F)(Br)[C@@H]1O)Oc1ccccc1 [Compound 28, Isopropyl ((S)-(((2R,3R,4S,5R)-4-Bromo-5-(2,4-dioxo-3,4-dihydro-pyrimidin-1(2H)-yl)-4-fluoro-3-hydroxytetrahydrofuran-2-yl)-methoxy)(phenoxy)phosphoryl)-L-alaninate]",EC90,HCV GT2a,77 nM
same,IC50 at 3 days,[1],> 100000 nM
same,"simulated gastric fluid (24 h), loss",[5],~2% loss
same,mutagenicity (mini Ames),[6],negative for mutagenicity
same,MtDNA content % of control (range),HepG2 cells; 12.5 μM,86 (79–93) % of control
same,MtDNA content % of control (range),HepG2 cells; 25 μM,110 (110–110) % of control
same,MtDNA content % of control (range),HepG2 cells; 50 μM,150 (150–150) % of control
same,mitochondrial toxicity,HepG2 cells,no mitochondrial toxicity
same,EC90,HCV GT1b-WT replicon,74 ± 2 nM
same,IC50,[7],> 30000 nM
same,half-life,[8],> 145 min
same,CC50,in vitro [4],> 100000 nM
same,IC50 at 14 days,[9],> 100000 nM
same,IC50,[10],> 100000 nM
same,remaining after 60 min,[11]; human liver microsomes,3%
same,Clint(liver),[11],63.2 mL/min/kg
same,half-life,in vitro [12],19.7 min
same,microsomal CLint,in vitro [12],70.2 µL/min/mg
same,stability in simulated intestinal fluid (24 h),[13],stable
same,EC90,[15],130 ± 3 nM
same,EC90,[16],83 ± 20 nM
"CC(C)OC(=O)[C@H](C)N[P@](=O)(OC[C@H]1O[C@@H](n2ccc(=O)[nH]c2=O)[C@](C)(F)[C@@H]1O)Oc1ccccc1 [SOF, sofosbuvir, reference compound]",IC50 at 3 days,[17],> 300000 nM
same,MtDNA content % of control (range),HepG2 cells; 12.5 μM,96 (90–100) % of control
same,MtDNA content % of control (range),HepG2 cells; 50 μM,130 (120–150) % of control
same,mutagenicity,[18],negative for mutagenicity
same,EC50,HCV GT1b-WT replicon,34 nM
same,EC90,HCV GT1b-WT replicon,150 ± 30 nM
same,IC50,[10],> 100000 nM
same,hERG channel inhibition,[19],free from hERG channel inhibition
same,EC90,[14],370 ± 10 nM
"Nc1ccn([C@H]2CC[C@@H](CO)O2)c(=O)n1 [ddC, β-D-2′,3′-dideoxycytidine, reference compound]",MtDNA content % of control (range),HepG2 cells; 10 μM,7.3 % of control
same,mitochondrial toxicity,HepG2 cells,highly toxic
Cc1cn([C@H]2CC[C@@H](COP(=O)(O)OP(=O)(O)OP(=O)(O)O)O2)c(=O)[nH]c1=O [ddTTP],IC50,DNA polymerase γ,100 ± 70 nM
same,IC50,DNA polymerase β,8400 ± 110 nM
"O=C(O)Cc1ccccc1Nc1c(Cl)cccc1Cl [diclofenac, reference compound]",microsomal CLint,in vitro [12],129 µL/min/mg

# Reference: paper PMC7722249 (Journal of medicinal chemistry, 2019)
